PubChem BioAssay (NCI)
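Test compounds were applied to cells in 96-well plates for 48 hours at 5 doses. GI50 is the concentration that inhibits growth by half. TGI marks complete inhibition of growth.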

How the values were obtained:
Assay in all cases: inhibition of tumour cell growth, NCI panel, 48 h
HOP-62 NSCLC = tested on: HOP-62 NSCLC
UO-31 renal = tested on: UO-31 renal
NCI-H522 lung = tested on: NCI-H522 lung
HT29 colon = tested on: HT29 colon
IGROV1 ovarian = tested on: IGROV1 ovarian
M14 melanoma = tested on: M14 melanoma
A549 NSCLC = tested on: A549 NSCLC
OVCAR-4 ovarian = tested on: OVCAR-4 ovarian
MCF7 breast = tested on: MCF7 breast
UACC-257 melanoma = tested on: UACC-257 melanoma
K-562 leukemia = tested on: K-562 leukemia
SK-OV-3 ovarian = tested on: SK-OV-3 ovarian
DU-145 prostate = tested on: DU-145 prostate
OVCAR-5 ovarian = tested on: OVCAR-5 ovarian
COLO 205 colon = tested on: COLO 205 colon
T-47D breast = tested on: T-47D breast
CCRF-CEM leukemia = tested on: CCRF-CEM leukemia
SF-268 CNS = tested on: SF-268 CNS
PC-3 prostate = tested on: PC-3 prostate
ACHN renal = tested on: ACHN renal
SNB-19 CNS = tested on: SNB-19 CNS
RXF 393 renal = tested on: RXF 393 renal
TK-10 renal = tested on: TK-10 renal
MALME-3M melanoma = tested on: MALME-3M melanoma
HCT-116 colon = tested on: HCT-116 colon
SW-620 colon = tested on: SW-620 colon
CAKI-1 renal = tested on: CAKI-1 renal
NCI/ADR-RES ovarian = tested on: NCI/ADR-RES ovarian
NCI-H460 lung = tested on: NCI-H460 lung
LOX IMVI melanoma = tested on: LOX IMVI melanoma
MDA-MB-435 = tested on: MDA-MB-435
BT-549 breast = tested on: BT-549 breast
SK-MEL-5 melanoma = tested on: SK-MEL-5 melanoma
SN12C renal = tested on: SN12C renal
SK-MEL-2 melanoma = tested on: SK-MEL-2 melanoma
OVCAR-3 ovarian = tested on: OVCAR-3 ovarian
HS 578T breast = tested on: HS 578T breast
HCC-2998 colon = tested on: HCC-2998 colon
MDA-MB-231 breast = tested on: MDA-MB-231 breast
MOLT-4 leukemia = tested on: MOLT-4 leukemia
SK-MEL-28 melanoma = tested on: SK-MEL-28 melanoma
HCT-15 colon = tested on: HCT-15 colon
UACC-62 melanoma = tested on: UACC-62 melanoma
HOP-92 NSCLC = tested on: HOP-92 NSCLC
U251 CNS = tested on: U251 CNS
OVCAR-8 ovarian = tested on: OVCAR-8 ovarian
KM12 colon = tested on: KM12 colon
NCI-H226 lung = tested on: NCI-H226 lung
RPMI-8226 leukemia = tested on: RPMI-8226 leukemia
MDA-MB-468 breast = tested on: MDA-MB-468 breast
NCI-H23 lung = tested on: NCI-H23 lung
HL-60(TB) leukemia = tested on: HL-60(TB) leukemia
A498 renal = tested on: A498 renal
786-0 renal = tested on: 786-0 renal
SR leukemia = tested on: SR leukemia
SF-539 CNS = tested on: SF-539 CNS
SNB-75 CNS = tested on: SNB-75 CNS
EKVX NSCLC = tested on: EKVX NSCLC

O=C(CSc1nnc(-c2ccc(-c3nc4ccc(Cl)cc4[nH]3)cc2)o1)Nc1ccccc1
GI50 (HOP-62 NSCLC): 2.18 µM | TGI (HOP-62 NSCLC): 5.54 µM | GI50 (UO-31 renal): 10.8 µM | TGI (UO-31 renal): 22.9 µM | GI50 (NCI-H522 lung): 2.74 µM | TGI (NCI-H522 lung): 10.6 µM | GI50 (HT29 colon): 4.5 µM | TGI (HT29 colon): 53.6 µM | GI50 (IGROV1 ovarian): 13.5 µM | TGI (IGROV1 ovarian): 28.5 µM | GI50 (M14 melanoma): 3.39 µM | TGI (M14 melanoma): 14.1 µM | GI50 (A549 NSCLC): 2.57 µM | TGI (A549 NSCLC): 11.3 µM | GI50 (OVCAR-4 ovarian): 3.02 µM | TGI (OVCAR-4 ovarian): 11 µM | GI50 (MCF7 breast): 7.37 µM | TGI (MCF7 breast): > 100 µM | GI50 (UACC-257 melanoma): 5.91 µM | TGI (UACC-257 melanoma): 21.8 µM | GI50 (K-562 leukemia): 3.58 µM | TGI (K-562 leukemia): > 100 µM | GI50 (SK-OV-3 ovarian): 3.97 µM | TGI (SK-OV-3 ovarian): 14.9 µM | GI50 (DU-145 prostate): 2.44 µM | TGI (DU-145 prostate): 5.48 µM | GI50 (OVCAR-5 ovarian): 7.42 µM | TGI (OVCAR-5 ovarian): 27.2 µM | GI50 (COLO 205 colon): 14.9 µM | TGI (COLO 205 colon): 41.9 µM | GI50 (T-47D breast): 17.1 µM | TGI (T-47D breast): 41.4 µM | GI50 (CCRF-CEM leukemia): 7.3 µM | TGI (CCRF-CEM leukemia): 68.8 µM | GI50 (SF-268 CNS): 2.44 µM | TGI (SF-268 CNS): 6.71 µM | GI50 (PC-3 prostate): 1.82 µM | TGI (PC-3 prostate): 5.04 µM | GI50 (ACHN renal): 2.64 µM | TGI (ACHN renal): 11 µM | GI50 (SNB-19 CNS): 3.26 µM | TGI (SNB-19 CNS): 12.2 µM | GI50 (RXF 393 renal): 2.38 µM | TGI (RXF 393 renal): 6.52 µM | GI50 (TK-10 renal): 20.9 µM | TGI (TK-10 renal): 39 µM | GI50 (MALME-3M melanoma): 1.99 µM | TGI (MALME-3M melanoma): 5.34 µM | GI50 (HCT-116 colon): 3.95 µM | TGI (HCT-116 colon): 41.1 µM | GI50 (SW-620 colon): 3.54 µM | TGI (SW-620 colon): 15.9 µM | GI50 (CAKI-1 renal): 1.9 µM | TGI (CAKI-1 renal): 3.89 µM | GI50 (NCI/ADR-RES ovarian): 9.04 µM | TGI (NCI/ADR-RES ovarian): 43.5 µM | GI50 (NCI-H460 lung): 0.9 µM | TGI (NCI-H460 lung): 2.97 µM | GI50 (LOX IMVI melanoma): 1.83 µM | TGI (LOX IMVI melanoma): 4.48 µM | GI50 (MDA-MB-435): 2.17 µM | TGI (MDA-MB-435): 7.11 µM | GI50 (BT-549 breast): 2.98 µM | TGI (BT-549 breast): 17 µM | GI50 (SK-MEL-5 melanoma): 3.72 µM | TGI (SK-MEL-5 melanoma): 14.5 µM | GI50 (SN12C renal): 3.26 µM | TGI (SN12C renal): 13.8 µM | GI50 (SK-MEL-2 melanoma): 14.9 µM | TGI (SK-MEL-2 melanoma): 30.5 µM | GI50 (OVCAR-3 ovarian): 3.3 µM | TGI (OVCAR-3 ovarian): 11.3 µM | GI50 (HS 578T breast): 2.92 µM | TGI (HS 578T breast): 13.9 µM | GI50 (HCC-2998 colon): 32.8 µM | TGI (HCC-2998 colon): > 100 µM | GI50 (MDA-MB-231 breast): 3.26 µM | TGI (MDA-MB-231 breast): 11.9 µM | GI50 (MOLT-4 leukemia): 8.63 µM | TGI (MOLT-4 leukemia): > 100 µM | GI50 (SK-MEL-28 melanoma): 2.52 µM | TGI (SK-MEL-28 melanoma): 7.01 µM | GI50 (HCT-15 colon): 8.35 µM | TGI (HCT-15 colon): > 100 µM | GI50 (UACC-62 melanoma): 6.71 µM | TGI (UACC-62 melanoma): 19.5 µM | GI50 (HOP-92 NSCLC): 2.33 µM | TGI (HOP-92 NSCLC): 8.78 µM | GI50 (U251 CNS): 4.54 µM | TGI (U251 CNS): 17.9 µM | GI50 (OVCAR-8 ovarian): 3.88 µM | TGI (OVCAR-8 ovarian): 18 µM | GI50 (KM12 colon): 8.4 µM | TGI (KM12 colon): 27.4 µM | GI50 (NCI-H226 lung): 1.87 µM | TGI (NCI-H226 lung): 5.28 µM | GI50 (RPMI-8226 leukemia): 15.5 µM | TGI (RPMI-8226 leukemia): > 100 µM | GI50 (MDA-MB-468 breast): 15.6 µM | TGI (MDA-MB-468 breast): 30 µM | GI50 (NCI-H23 lung): 3.04 µM | TGI (NCI-H23 lung): 10.1 µM | GI50 (HL-60(TB) leukemia): 16.4 µM | TGI (HL-60(TB) leukemia): > 100 µM | GI50 (A498 renal): 15.2 µM | TGI (A498 renal): 28.5 µM | GI50 (786-0 renal): 1.52 µM | TGI (786-0 renal): 3.44 µM | GI50 (SR leukemia): 16.3 µM | TGI (SR leukemia): > 100 µM | GI50 (SF-539 CNS): 2.24 µM | TGI (SF-539 CNS): 5.74 µM | GI50 (SNB-75 CNS): 1.65 µM | TGI (SNB-75 CNS): 4.8 µM | GI50 (EKVX NSCLC): 4.86 µM | TGI (EKVX NSCLC): 25.6 µM
